Where two headings read alike, the source gives them in different places.
Experiments:
XPO1 [1] = molecular target: T1, XPO1 (Mus musculus, UniProt Q6P5F9); assay: XPO1 occupancy assay in PBMCs from mice dosed orally with selinexor; format: in vivo
T1 construct: the blood from the mice for each dose (n = 4) was pooled and PBMCs were immediately isolated; from tissue; host or cells: PBMCs from pooled blood of orally dosed mice
Experimental: In order to have enough PBMCs to assay, the blood from the mice for each dose (n = 4) was pooled and PBMCs were immediately isolated. Mouse PBMCs were incubated with 1 nM b-LMB for 1.5 hours ex vivo then collected and prepared for the XPO1 occupancy assay.
Using similar conditions, we sought to determine the duration of XPO1 occupancy by SINE compounds in mice. […] The mice were then terminally bled at 4, 24, 36, 48, 60, 72, and 96 hours post dose (n = 4 mice per dose per time point). Blood for each dose at each time point was pooled and PMBCs were isolated. Mouse PBMCs were incubated with 1 nM b-LMB for 1.5 hours ex vivo before being processed for the XPO1 occupancy assay. Both 3 and 10 mg/kg had time-dependent increases in the ratio of free-fraction XPO1, with 50% XPO1 occupancy being sustained for up to 72 hours post-treatment (Figure 5B).
Human donor blood collected in Vacutainer® EDTA tubes (BD) (BioreclamationIVT) was purchased for peripheral blood mononuclear cells (PBMCs) isolation. […] Mouse whole blood was collected in Vacutainer® EDTA tubes (BD) and pooled from each group for each time point. Human and mouse PBMCs were separated by Ficoll (GE Healthcare) gradient. Human PMBCs were cryogenically preserved in Recovery™ Cell Culture Freezing Medium (Gibco). […] Freshly isolated PBMCs from control or selinexor-treated mice were treated ex vivo with 1 nM b-LMB for 1.5 hours prior to collection and processing for the XPO1 occupancy assay.
(§1) Cells were collected, washed with PBS, and lysed with RIPA Buffer (Thermo Scientific) with protease inhibitors [Complete Ultra Tablets, Mini, EDTA-free, Easy pack (Roche), PhosStop Easy (Roche)]. A portion of the lysate was reserved (input) while the rest was added to washed Dynabeads MyOne Streptavidin T1 (Invitrogen) with RIPA Buffer. Samples were incubated overnight with constant rotation at 4°C. Beads were then washed 5 times with modified RIPA (150 mM NaCl, 50 mM Tris, 1% NP-40, 0.1% Na deoxycholate, 1 mM EDTA, pH 7.8). The reserved portion of lysates (input) and the beads were each mixed with Protein Simple buffer (Protein Simple), DTT (Invitrogen), and fluorescent standards (Protein Simple), then boiled at 95°C for 10 min. Eluates and inputs were analyzed using a capillary western method (Peggy Sue; Protein Simple) with the following primary antibodies: XPO1 (Santa Cruz) and β-actin (Santa Cruz). Capillary westerns were performed by SBH Sciences (Natick, MA). Peak areas corresponding to the protein molecular weight of XPO1 and actin were compared for sample inputs, while the ratio of XPO1 peak areas in eluate to input (ratio of bound or free-fraction XPO1) versus compound concentration were used in XLFit model 205 to calculate 50% and 90% occupancy curves.

MM.1S = assay: MTT cytotoxicity assay; format: cell-based; conditions: Homo sapiens, MM1.S
HCT-116 = assay: MTT cytotoxicity assay; format: cell-based; conditions: Homo sapiens
AML2 = assay: MTT cytotoxicity assay; format: cell-based
AML3 = assay: MTT cytotoxicity assay; format: cell-based
MV-4–11 = assay: MTT cytotoxicity assay; format: cell-based; conditions: Homo sapiens, MV4-11, read-out: Selinexor IC50 (μM)
HT1080 = assay: MTT cytotoxicity assay; format: cell-based; conditions: Homo sapiens, HT-1080, read-out: Selinexor IC50 (μM)
HEL = assay: MTT cytotoxicity assay; format: cell-based; conditions: Homo sapiens, read-out: Selinexor IC50 (μM)
Kasumi-6 = assay: MTT cytotoxicity assay; format: cell-based; conditions: read-out: Selinexor IC50 (μM)
THP-1 = assay: MTT cytotoxicity assay; format: cell-based; conditions: Homo sapiens, read-out: Selinexor IC50 (μM)
HT1080 resistant = assay: MTT cytotoxicity assay; format: cell-based; conditions: Homo sapiens, HT-1080, read-out: Selinexor IC50 (μM)
A549 = assay: MTT cytotoxicity assay; format: cell-based; conditions: Homo sapiens, read-out: Selinexor IC50 (μM)
UCH1 = assay: MTT cytotoxicity assay; format: cell-based; conditions: read-out: Selinexor IC50 (μM)
LS174T = assay: MTT cytotoxicity assay; format: cell-based; conditions: Homo sapiens, read-out: Selinexor IC50 (μM)
ASPS-KY = assay: MTT cytotoxicity assay; format: cell-based; conditions: read-out: Selinexor IC50 (μM)
[2] = humans; clinical PK analysis, no reference given; cited from earlier work
XPO1 [3] = molecular target: XPO1 (Homo sapiens, UniProt O14980); assay: XPO1 occupancy assay in human PBMCs treated ex vivo; format: cell-based; parameters: performed ex vivo on PBMCs isolated from pooled healthy donor blood; host or cells: human PBMCs from pooled healthy donor blood, fresh or revived after cryopreservation; conditions: then 1 nM b-LMB 1 hour
Sequence of XPO1 (Homo sapiens, UniProt O14980) (O14980 whole entry): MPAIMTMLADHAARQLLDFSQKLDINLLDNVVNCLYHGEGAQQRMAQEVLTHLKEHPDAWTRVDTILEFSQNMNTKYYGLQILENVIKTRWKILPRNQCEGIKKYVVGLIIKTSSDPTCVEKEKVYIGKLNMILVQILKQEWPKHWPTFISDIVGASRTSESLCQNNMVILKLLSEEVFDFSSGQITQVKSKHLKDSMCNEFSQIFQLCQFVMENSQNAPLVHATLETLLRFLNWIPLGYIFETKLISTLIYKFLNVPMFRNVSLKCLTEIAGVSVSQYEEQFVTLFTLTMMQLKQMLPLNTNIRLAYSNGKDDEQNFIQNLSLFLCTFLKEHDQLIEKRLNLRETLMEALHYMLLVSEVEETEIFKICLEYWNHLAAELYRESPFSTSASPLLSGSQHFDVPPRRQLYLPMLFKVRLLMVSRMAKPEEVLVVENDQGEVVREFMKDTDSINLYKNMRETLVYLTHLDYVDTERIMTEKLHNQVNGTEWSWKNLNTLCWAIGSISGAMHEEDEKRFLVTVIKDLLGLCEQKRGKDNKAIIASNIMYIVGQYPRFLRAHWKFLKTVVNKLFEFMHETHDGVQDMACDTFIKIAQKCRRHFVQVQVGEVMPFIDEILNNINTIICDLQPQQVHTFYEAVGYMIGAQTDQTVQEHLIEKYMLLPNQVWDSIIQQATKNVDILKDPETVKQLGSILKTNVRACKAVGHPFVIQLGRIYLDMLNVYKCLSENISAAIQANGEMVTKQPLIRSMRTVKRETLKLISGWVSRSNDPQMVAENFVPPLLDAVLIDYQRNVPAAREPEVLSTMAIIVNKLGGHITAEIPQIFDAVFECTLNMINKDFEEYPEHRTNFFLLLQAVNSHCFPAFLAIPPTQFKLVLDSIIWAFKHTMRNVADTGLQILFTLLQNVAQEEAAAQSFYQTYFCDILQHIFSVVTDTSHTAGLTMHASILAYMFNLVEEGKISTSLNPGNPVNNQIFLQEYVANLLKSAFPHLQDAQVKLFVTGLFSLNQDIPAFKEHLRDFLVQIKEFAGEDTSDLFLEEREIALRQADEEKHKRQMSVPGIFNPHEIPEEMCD
Experimental: as §1

[4] = single oral dose, 4 hours post-dosing
[5] = read-out: Selinexor IC50 (μM), MTT

T1 sequence (Q6P5F9 whole entry): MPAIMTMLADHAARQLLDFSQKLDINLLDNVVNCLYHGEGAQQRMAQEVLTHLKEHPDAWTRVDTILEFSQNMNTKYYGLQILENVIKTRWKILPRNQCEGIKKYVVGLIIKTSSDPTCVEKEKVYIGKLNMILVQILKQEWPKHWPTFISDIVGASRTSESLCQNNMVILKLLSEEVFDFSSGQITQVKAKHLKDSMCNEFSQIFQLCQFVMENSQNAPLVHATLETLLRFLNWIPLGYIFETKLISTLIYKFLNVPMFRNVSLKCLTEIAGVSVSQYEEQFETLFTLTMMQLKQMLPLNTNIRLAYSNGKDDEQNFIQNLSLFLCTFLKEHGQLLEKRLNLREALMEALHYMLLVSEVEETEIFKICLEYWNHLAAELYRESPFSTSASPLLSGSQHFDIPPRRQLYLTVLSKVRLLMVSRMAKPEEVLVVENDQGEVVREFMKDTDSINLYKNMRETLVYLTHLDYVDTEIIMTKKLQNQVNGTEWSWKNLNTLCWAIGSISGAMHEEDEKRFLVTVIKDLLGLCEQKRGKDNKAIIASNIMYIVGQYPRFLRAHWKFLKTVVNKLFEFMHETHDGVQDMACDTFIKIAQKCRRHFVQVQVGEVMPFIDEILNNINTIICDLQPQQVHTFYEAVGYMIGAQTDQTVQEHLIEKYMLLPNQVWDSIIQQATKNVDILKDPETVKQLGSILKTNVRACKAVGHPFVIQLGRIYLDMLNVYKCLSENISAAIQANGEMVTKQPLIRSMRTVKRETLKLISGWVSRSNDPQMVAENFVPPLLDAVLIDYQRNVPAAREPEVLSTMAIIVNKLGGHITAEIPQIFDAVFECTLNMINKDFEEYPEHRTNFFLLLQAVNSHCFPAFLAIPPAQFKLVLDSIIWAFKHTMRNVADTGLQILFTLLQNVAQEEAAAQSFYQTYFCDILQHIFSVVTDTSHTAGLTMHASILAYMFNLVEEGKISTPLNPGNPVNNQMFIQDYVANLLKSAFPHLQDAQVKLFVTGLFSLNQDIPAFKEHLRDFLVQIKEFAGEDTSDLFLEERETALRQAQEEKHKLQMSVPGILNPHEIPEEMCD

O=C(/C=C\n1cnc(-c2cc(C(F)(F)F)cc(C(F)(F)F)c2)n1)NNc1cnccn1 [Selinexor, selinexor]
time at which full saturation of XPO1 was achieved (XPO1 [1]; single oral dose of 3 mg/kg): 4 to 24 h
time for which 50% XPO1 occupancy is sustained post-treatment (XPO1 [1]; single oral dose of 3 and 10 mg/kg): up to 72 hours
amount of selinexor required to occupy 50% of XPO1 (XPO1 [1]; [4]): 1.84 mg/kg
amount of selinexor to achieve 90% XPO1 occupancy (XPO1 [1]; [4]): > 10 mg/kg
IC50 (MM.1S; 72 hours, read-out: IC50): 0.02 µM
IC50 (MM.1S; [5]): 0.02 µM
IC50 (HCT-116; 72 hours, read-out: IC50): 0.05 µM
IC50 (HCT-116; [5]): 0.05 µM
IC50 (AML2; 72 hours, read-out: IC50): 0.09 µM
IC50 (AML2; [5]): 0.09 µM
IC50 (AML3; 72 hours, read-out: IC50): 0.27 µM
IC50 (AML3; [5]): 0.27 µM
IC50 (MV-4–11): 0.02 µM
IC50 (HT1080): 0.07 µM
IC50 (HEL): 0.35 µM
IC50 (Kasumi-6): 0.53 µM
IC50 (THP-1): 1.06 µM
IC50 (HT1080 resistant): 2.4 µM
IC50 (A549): 3 µM
IC50 (UCH1): 7 µM
IC50 (LS174T): > 10 µM
IC50 (ASPS-KY): > 10 µM
Tmax [2]: ~4 h
near complete plasma clearance by (time post-dose) [2]: ~24 h
90% Occupancy (XPO1 [3]; fresh human PBMCs, selinexor 1 hour): > 0.5 µM
90% Occupancy (XPO1 [3]; human PBMCs revived from cryopreservation, selinexor 4 hours, washed): 0.04 µM

From article PMC4811503, “A method for quantification of exportin-1 (XPO1) occupancy by Selective Inhibitor of Nuclear Export (SINE) compounds” (Oncotarget, 2015)
